Measured values: PMC11995724, “Antibiotic target discovery by integrated phenotypic and activity-based profiling of electrophilic fragments” (Cell chemical biology, 2025)
Structures can show the parent of a compound that is named as a salt.

Test: in vitro
Details: human, hek293t cells

Structure (SMILES)	viability at 48 h, 25 µM [%]
O=C1CCc2cc(C(=O)CCl)ccc2N1 [10-M03, 6-(2-chloroacetyl)-1,2,3,4-tetrahydroquinolin-2-one]	1.31
CC(=O)NCc1ccc(C(=O)C(C)Cl)s1 (stereo not shown) [10-M04, N-{[5-(2-chloropropanoyl)thiophen-2-yl]methyl}acetamide]	93.5
Cc1oc(C(N)=O)cc1C(=O)CCl [10-M05, 4-(2-chloroacetyl)-5-methylfuran-2-carboxamide]	27.7
CC(Cl)C(=O)c1ccc(NC(=O)C(C)(C)C)cc1 (stereo not shown) [10-M06, N-[4-(2-chloropropanoyl)phenyl]-2,2-dimethylpropanamide]	97.9
NC(=O)COc1ccc(C(=O)CCl)cc1 [10-M07, 2-[4-(2-chloroacetyl)phenoxy]acetamide]	38.6
CC(Cl)C(=O)c1ccc2c(c1)CCC2 (stereo not shown) [10-M08, 2-chloro-1-(2,3-dihydro-1H-inden-5-yl)propan-1-one]	95.2
O=C(CCl)c1ccncc1 [10-M09, 2-chloro-1-(pyridin-4-yl)ethan-1-one hydrochloride]	79.1
O=C1C=CC(=O)N1c1ccc(F)cc1 [10-M10, 1-(4-fluorophenyl)-2,5-dihydro-1H-pyrrole-2,5-dione]	68.4
Cc1coc(C)c1C(=O)CCl [10-M11, 2-chloro-1-(2,4-dimethylfuran-3-yl)ethan-1-one]	72.9
CC(C)Cn1c(N)c(C(=O)CCl)c(=O)n(C)c1=O [10-M12, 6-amino-5-(2-chloroacetyl)-3-methyl-1-(2-methylpropyl)-1,2,3,4-tetrahydropyrimidine-2,4-dione]	97.1
CC1CC(C(=O)CCl)CO1 (stereo not shown) [10-M13, 2-chloro-1-(5-methyloxolan-3-yl)ethan-1-one]	102
Cc1cc(C(=O)CCl)c(C)n1Cc1ccccc1 [10-M14, 1-(1-benzyl-2,5-dimethyl-1H-pyrrol-3-yl)-2-chloroethan-1-one]	78.4
O=C(CCl)C1CC12CCOCC2 (stereo not shown) [10-M15, 2-chloro-1-{6-oxaspiro[2.5]octan-1-yl}ethan-1-one]	108
O=C(c1ccccc1)c1cc(Cl)ccc1N1C(=O)C=CC1=O [10-M16, 1-(2-benzoyl-4-chlorophenyl)-2,5-dihydro-1H-pyrrole-2,5-dione]	48.7
O=C(CCl)COc1ccc(Cl)cc1 [10-M17, 1-chloro-3-(4-chlorophenoxy)propan-2-one]	26.1
Cc1nc(C)c(S(=O)(=O)N2CCSSCC2)s1 [10-M18, 5-[(2,4-dimethyl-1,3-thiazol-5-yl)sulfonyl]-1,2,5-dithiazepane]	90.2
Cn1cc(C(=O)CCl)nn1 [10-M19, 2-chloro-1-(1-methyl-1H-1,2,3-triazol-4-yl)ethan-1-one]	68.1
O=C1CCCc2cc(C(=O)CCl)ccc2N1 [10-M20, 7-(2-chloroacetyl)-2,3,4,5-tetrahydro-1H-1-benzazepin-2-one]	80.5
Cc1oc(C(=O)O)cc1C(=O)CCl [10-M21, 4-(2-chloroacetyl)-5-methylfuran-2-carboxylic acid]	91
c1nc(N2CCSSCC2)c2c3c(sc2n1)CCCC3 [10-M22, 3-(1,2,5-dithiazepan-5-yl)-8-thia-4,6-diazatricyclo[7.4.0.0,2,7]trideca-1(9),2,4,6-tetraene]	78.3

Structure (SMILES)	viability at 48 h, 25 µM [%]
CC(=O)NCCc1ccc(C(=O)CCl)cc1 [10-N03, N-{2-[4-(2-chloroacetyl)phenyl]ethyl}acetamide]	85.6
Cn1c(-c2ccccc2)c(C(=O)CCl)c2ccccc21 [10-N04, 2-chloro-1-(1-methyl-2-phenyl-1H-indol-3-yl)ethan-1-one]	1.67
COc1ccc(C(=O)CCl)c2c1C(=O)CO2 [10-N05, 7-(2-chloroacetyl)-4-methoxy-2,3-dihydro-1-benzofuran-3-one]	92.2
CC(C)CC(=O)Nc1ccc(C(=O)CCl)cc1 [10-N06, N-[4-(2-chloroacetyl)phenyl]-3-methylbutanamide]	11.7
Cc1ccc(N2C(=O)C=CC2=O)c(C)c1 [10-N07, 1-(2,4-dimethylphenyl)-2,5-dihydro-1H-pyrrole-2,5-dione]	102
Cc1nc(C)c(C(=O)CCl)o1 [10-N08, 2-chloro-1-(2,4-dimethyl-1,3-oxazol-5-yl)ethan-1-one]	76.1
O=[N+]([O-])c1ccccc1S(=O)(=O)N1CCSSCC1 [10-N09, 5-(2-nitrobenzenesulfonyl)-1,2,5-dithiazepane]	117
N#CC(C(=O)CCl)=C1NC2=C(CCc3ccccc32)S1 [10-N10, 4-chloro-2-{1H,2H,4H,5H-naphtho[1,2-d][1,3]thiazol-2-ylidene}-3-oxobutanenitrile]	12.3
CCOC(=O)C(C#N)=Cc1ccc(N2C(=O)C=CC2=O)cc1 [10-N11, ethyl 2-cyano-3-[4-(2,5-dioxo-2,5-dihydro-1H-pyrrol-1-yl)phenyl]prop-2-enoate]	93.1
COCCn1c(N)c(C(=O)CCl)c(=O)[nH]c1=O [10-N12, 6-amino-5-(2-chloroacetyl)-1-(2-methoxyethyl)-1,2,3,4-tetrahydropyrimidine-2,4-dione]	103
Cc1ccc(N2C(=O)C=CC2=O)c([N+](=O)[O-])c1 [10-N13, 1-(4-methyl-2-nitrophenyl)-2,5-dihydro-1H-pyrrole-2,5-dione]	133
Cc1cc(C(=O)CCl)c(C)n1-c1ccc(S(N)(=O)=O)cc1 [10-N14, 4-[3-(2-chloroacetyl)-2,5-dimethyl-1H-pyrrol-1-yl]benzene-1-sulfonamide]	85.8
COc1ccc(OC)c(N2C(=O)C=CC2=O)c1 [10-N15, 1-(2,5-dimethoxyphenyl)-2,5-dihydro-1H-pyrrole-2,5-dione]	110
Cc1cc(C(=O)CCl)c(C)n1CCc1ccc(Cl)cc1 [10-N16, 2-chloro-1-{1-[2-(4-chlorophenyl)ethyl]-2,5-dimethyl-1H-pyrrol-3-yl}ethan-1-one]	0.625
Cc1cc(C(=O)CCl)c(C)n1Cc1ccc(F)cc1 [10-N17, 2-chloro-1-{1-[(4-fluorophenyl)methyl]-2,5-dimethyl-1H-pyrrol-3-yl}ethan-1-one]	6.45
Cc1cc(C(=O)CCl)c(C)n1-c1cccc(Cl)c1 [10-N18, 2-chloro-1-[1-(3-chlorophenyl)-2,5-dimethyl-1H-pyrrol-3-yl]ethan-1-one]	0.68
CCn1cc(S(=O)(=O)N2CCSSCC2)cn1 [10-N19, 5-[(1-ethyl-1H-pyrazol-4-yl)sulfonyl]-1,2,5-dithiazepane]	109
Cc1cc(C(=O)CCl)c(C)n1-c1ccc(C(C)(C)C)cc1 [10-N20, 1-[1-(4-tert-butylphenyl)-2,5-dimethyl-1H-pyrrol-3-yl]-2-chloroethan-1-one]	0.606
CC1(C)C(=O)Nc2ccc(C(=O)CCl)cc21 [10-N21, 5-(2-chloroacetyl)-3,3-dimethyl-2,3-dihydro-1H-indol-2-one]	73.1
Cn1cc(C(=O)CCl)cc1C(=O)C(Cl)(Cl)Cl [10-N22, 2,2,2-trichloro-1-[4-(2-chloroacetyl)-1-methyl-1H-pyrrol-2-yl]ethan-1-one]	1.4

Structure (SMILES)	viability at 48 h, 25 µM [%]
Cc1cc(C(=O)CCl)c(F)cc1F [10-O03, 2-chloro-1-(2,4-difluoro-5-methylphenyl)ethan-1-one]	2.01
CC(Cl)C(=O)c1ccc(Cl)cc1 (stereo not shown) [10-O04, 2-chloro-1-(4-chlorophenyl)propan-1-one]	106
CC(=O)NCCc1cc(C(=O)CCl)ccc1F [10-O05, N-{2-[5-(2-chloroacetyl)-2-fluorophenyl]ethyl}acetamide]	37.8
CCCC(=O)Nc1ccc(C(=O)C(C)Cl)cc1 (stereo not shown) [10-O06, N-[4-(2-chloropropanoyl)phenyl]butanamide]	85.1
O=C1C=CC(=O)N1c1cccc(O)c1 [10-O07, 1-(3-hydroxyphenyl)-2,5-dihydro-1H-pyrrole-2,5-dione]	68.4
N#CC(C(=O)CCl)=C1Nc2cc(Cl)ccc2S1 [10-O08, 4-chloro-2-(5-chloro-2,3-dihydro-1,3-benzothiazol-2-ylidene)-3-oxobutanenitrile]	101
O=C(CCl)c1ccoc1 [10-O09, 2-chloro-1-(furan-3-yl)ethan-1-one]	76.8
COc1ccccc1N1C(=O)C=CC1=O [10-O10, 1-(2-methoxyphenyl)-2,5-dihydro-1H-pyrrole-2,5-dione]	57.5
O=C(CCl)c1c[nH]c2ccc(F)cc12 [10-O11, 2-chloro-1-(5-fluoro-1H-indol-3-yl)ethan-1-one]	0.58
CC(=O)Nc1ccc(C(=O)CCl)cc1 [10-O12, N-[4-(2-chloroacetyl)phenyl]acetamide]	12.6
Cc1ccc(CC(=O)CCl)cc1 [10-O13, 1-chloro-3-(4-methylphenyl)propan-2-one]	67.6
Cc1ccc([N+](=O)[O-])cc1N1C(=O)C=CC1=O [10-O14, 1-(2-methyl-5-nitrophenyl)-2,5-dihydro-1H-pyrrole-2,5-dione]	67.2
O=C(CCl)Cc1c(F)cccc1F [10-O15, 1-chloro-3-(2,6-difluorophenyl)propan-2-one]	95.8
Cc1cc(C(=O)CCl)c(C)n1CC(N)=O [10-O16, 2-[3-(2-chloroacetyl)-2,5-dimethyl-1H-pyrrol-1-yl]acetamide]	108
O=C(CCl)Cc1ccc(F)c(F)c1 [10-O17, 1-chloro-3-(3,4-difluorophenyl)propan-2-one]	28
Cc1nc(CNC(=O)N2CCSSCC2)cs1 [10-O18, N-[(2-methyl-1,3-thiazol-4-yl)methyl]-1,2,5-dithiazepane-5-carboxamide]	112
O=C1C=CC(=O)N1C1CNC1 [10-O19, 1-(azetidin-3-yl)-2,5-dihydro-1H-pyrrole-2,5-dione hydrochloride]	83.3
O=C1CCc2cc(C(=O)CCl)c(F)cc2N1 [10-O20, 6-(2-chloroacetyl)-7-fluoro-1,2,3,4-tetrahydroquinolin-2-one]	11.9
